Experimental data published in patent US7109175B1, “Specific steady-state R-type CA2+ channel blockers and use thereof” (Universite de Sherbrooke, priority 2000, dated 2006).
Entries after “also recorded” stand apart in the source; their conditions may differ.

Experiments:
[1] = test system: vascular permeability in the rat skin; test: Bradykinin-induced skin vascular permeability in rats; assay type: in vivo; settings: for increase of vascular permeability caused by bradykinin: MV 8612 8 and 16, MV 8608 27 and 54, i.p.
Method: To assess further the anti-inflammatory action of MV 8612 and MV 8608, their effects against the inflammatory responses caused by several mediators of inflammation in a murine model of pleurisy were tested (Saleh et al., 1996, Br. J. Pharmacol. 118:811–819). In addition, both compounds were tested against the increase of vascular permeability caused by bradykinin in the rat skin (Neves et al., 1993b, Phytotherapy Research. 7:356–362).

R-type Ca^2+ channel [2] = test: Fura-2 [Ca]i, embryonic chick heart cells; assay type: cell-based; settings: 10^−9M, sustained depolarization (KCl 30 mM), PAF 10^−9M, ET-1 10^−9M
From the text: (§1) This sustained increase of Ca^2+ induced by depolarization of the cell membrane or hormones such as PAF, ET-1 and bradykinin is due to the increase of Ca^2+ influx through the R-type Ca^2+ channels at the sarcolemmal membrane and/or the nuclear membrane (Bkaily G., 1994, supra; 1996, supra; 1997a–d, supra). Using Ca^2+ fluorescence probes Fura-2 or Fluo-3 and 2 and three-dimension Ca^2+ imaging techniques (Bkaily G., 1994, supra; 1996, supra; 1997a–d, supra), the effect of hormones and drugs could be easily tested. These two methods are used with single cells of different types as described above.
In another series of experiments we tested the effect of MV8608 (10^−9M) on R-type Ca^2+ channels stimulation-induced sustained increase of total intracellular Ca^2+ by sustained depolarization (FIGS. 15 to 19), by PAF (10^−9M) (FIGS. 16 to 19 and 21 to 22), by ET-1 (10^−9M) (FIGS. 16 and 19) and bradykinin (BK, 10^−6M) (FIGS. 20 and 21), in embryonic chick heart cells (FIGS. 15, 16, 19 and 20), 19-week-old human fetal heart cells (FIGS. 15, 17, 18 and 20), rabbit aortic vascular smooth muscle (VSM) cells (FIGS. 20 and 21), human aortic VSM cell-line (FIG. 23) and freshly isolated (FIG. 22) as well as in freshly isolated aortic endothelial cells (FIG. 22). […]

[3] = test system: human lymphocyte proliferation; test: Human lymphocyte proliferation in vitro; assay type: cell-based; settings: for inhibition of human lymphocyte proliferation: MV 8612 0.02 to 0.32 M, MV 8608 14.5 to 116 M
Method: In a separate series of experiments, compounds MV 8612 and MV 8608 were tested to analyze whether they interfered with human lymphocyte proliferation “in vitro”. These experiments were carried out as reported previously (Moraes et al., 1996, Eur. J. Pharmacol. 312:333–339).

R-type Ca^2+ channel [4] = test: Cell-attached single channel recording of R-type Ca2+ channel, human aortic VSM cell line; assay type: cell-based; settings: for R-type channel opening (probability, duration, frequency) / R-type single channel current: 10^−7M extra-patch pipette application; for R-type single channel amplitude and probability of opening: nifedipine 10^−6M present
Method: Also, for the R-type Ca^2+ channel current, the effect of the compounds are tested on the R-type Ca^2+ channel amplitude, voltage dependency and probability of opening, by using the cell-attached patch clamp technique (Bkaily 1994, supra; 1996, supra) and intra and extra patch pipette application of the drug.
In another series of experiments (n=7), using the cell attached patch clamp technique (Bkaily G. 1994, supra; Bkaily G. et al., 1996, supra), the effect of 10^−7M of MV8608 on the R-type Ca^2+ channel in human aortic vascular smooth muscle cell line was tested. […] In a second series of experiments (n=3), the patch pipette solution was free of MV8608 and after recording the single channel activities at different voltages, MV8608 (final concentration of 10^−7M) was applied to the extra-patch pipette solution containing 140 mM KCl (where the rest of the cell is bathing). This experiment was designed to verify whether MV8608 crossed the cell membrane and if so, whether its effect from the internal side of the channel under the patch is the same as that when applied at the outer side thereof. […] Such a pattern of increase of probability of opening and the open duration accompanied with the sporadic decrease of the single channel current amplitude has never been observed when MV8608 was applied at the outer side of the single channel under the patch pipette.
In another series of experiments (n=7), the effect of 10^−7M of MV8612 was tested on the R-type Ca^2+ in human aortic VSM cells, using the single channel cell attached recording technique and intra and extra patch pipette application of drugs.
In one series of experiments (n=3), MV8612 (total concentration, 10^−7M) was only applied to the patch pipette. […] As for MV8608, in one series of experiments (n=4), MV8612 (10^−7M) was only applied to the extra-patch pipette, in order to verify if the compound penetrates into the cytosol and if so, how it affects the R-type Ca^2+ channel activity.

mouse paw oedema = test: Mouse paw oedema; assay type: in vivo, mice
Method: In this experiment (N=5 to 6 animals per group), the anti-oedemagenic action of compounds MV 8608 and MV 8612 against bradykinin and several mediators which are reported to be involved in the inflammatory processes, was evaluated. The procedures used to perform these experiments have been reported elsewhere (Neves et al., 1993, Eur. J. Pharmacol. 243:213–219; Campos et al., 1995, Br. J. Pharmacol. 114:1005–1013; Campos et al., 1996, Br. J. Pharmacol. 117:793–798; Eur. J. Pharmacol. 316:227–286). […] As reported previously, in rats treated […] prior to a systemic injection of LPS, both B1 and B2 kinin selective agonists caused marked oedema formation (FIGS. 37C and D (Campos et al., 1996, supra)).
When tested in mice, MV 8612 (40 to 160 nmol/paw) inhibited bradykinin and carrageenan-induced paw oedema in mice in a dose-dependent manner (FIGS. 46A and B).

R-type Ca^2+ channel [5] = test: Fura-2 total [Ca]i, R-type channel stimulation-induced sustained increase, pooled cell types; assay type: cell-based, chick, human, rabbit
From the text: as §1
In another series of experiments we tested the effect of MV8608 (10^−9M) on R-type Ca^2+ channels stimulation-induced sustained increase of total intracellular Ca^2+ by sustained depolarization (FIGS. 15 to 19), by PAF (10^−9M) (FIGS. 16 to 19 and 21 to 22), by ET-1 (10^−9M) (FIGS. 16 and 19) and bradykinin (BK, 10^−6M) (FIGS. 20 and 21), in embryonic chick heart cells (FIGS. 15, 16, 19 and 20), 19-week-old human fetal heart cells (FIGS. 15, 17, 18 and 20), rabbit aortic vascular smooth muscle (VSM) cells (FIGS. 20 and 21), human aortic VSM cell-line (FIG. 23) and freshly isolated (FIG. 22) as well as in freshly isolated aortic endothelial cells (FIG. 22).
Using Fura-2 [Ca]i measurement technique, in one series of experiments we tested the effect of MV8612 (10^−9M) on the stimulation of R-type Ca^2+-induced sustained increase of [Ca]i by sustained depolarization (FIGS. 26 and 27), PAF (10^−9M, FIG. 34) and ET-1 (FIGS. 33 and 34).

[6] = test system: human aortic vascular smooth muscle cell line; test: Spontaneous proliferation of human aortic vascular smooth muscle cell line; assay type: cell-based; settings: 10^−8M
[7] = 40 to 160 nmol/paw co-injection

| SMILES | increase of vascular permeability caused by bradykinin [1] | sustained increase of [Ca]i (R-type Ca^2+ channel [2]) | inhibition of human lymphocyte proliferation [3] | R-type channel opening (probability, duration, frequency) (R-type Ca^2+ channel [4]) | R-type single channel current (R-type Ca^2+ channel [4]) | R-type single channel amplitude and probability of opening (R-type Ca^2+ channel [4]; 10^−7M in the patch pipette) | histamine-induced paw oedema (mouse paw oedema; 7.5 and 15, i.p.) | serotonin-induced paw oedema (mouse paw oedema; 7.5 and 15, i.p.) | bradykinin-induced paw oedema (mouse paw oedema; 7.5 and 15, i.p., 30 min prior) | spontaneous proliferation [6] | other results |
| --- | --- | --- | --- | --- | --- | --- | --- | --- | --- | --- | --- |
| C[C@]12CC[C@H](O)CC1=CC[C@@H]1[C@@H]2CC[C@]2(C)[C@H]3[C@@H]4OC[C@H]3O[C@@H](O)[C@]12O4 [MV8608, (15R, 16R, 20S)-14, 16:15,20:16,21-triepoxi-15,16-seco 14β, 17α-pregn-5-ene-3β, 15-diol] | antagonised in a dose-related manner | blockade | graded inhibition | increased the probability and duration of opening | spontaneous decrease and release of the blockade of the single channel current | decreased the single channel amplitude and probability of opening | dose-related inhibition | dose-related inhibition | unaffected | significantly decreased | R-type single channel conductance (R-type Ca^2+ channel [4]; 10^−7M in the patch pipette): without affecting its single channel conductance; time to complete block of sustained increase of [Ca]i (R-type Ca^2+ channel [5]; 10^−9M): 4 to 5 min; sustained increase of [Ca]i via activation of R-type Ca2+ channel (R-type Ca^2+ channel [5]; 10^−9M, sustained depolarization, ET-1 10^−9M, PAF 10^−9M, BK 10^−6M): completely blocked; also recorded: blockade; block of R-type Ca2+ channel across cell types (R-type Ca^2+ channel [5]; incl. MG63, FAOS-2, human VSM, endothelial cells, T-lymphocytes, platelets, AOSMC-9): blocked the R-type Ca^2+ channel in all cell types used |
| COC1CC(OC2C(C)OC(O[C@H]3CC[C@@]4(C)C(=CC[C@@H]5[C@@H]4CC[C@]4(C)[C@H]6[C@@H]7OC[C@H]6O[C@@H](O)[C@]54O7)C3)CC2OC)OC(C)C1OC1CC(OC)C(OC2CC(OC)C(OC3OC(C)C(OC(C)=O)C(OC)C3OC(C)=O)C(C)O2)C(C)O1 (stereo partly shown) [MV8612] | antagonised in a dose-related manner | blockade | graded inhibition | rapidly increased the R-type Ca^2+ opening frequence | small decrease in the single channel current | significantly decreased | no significant effect | no significant effect | dose-dependent inhibition | significantly decreased | activity against bradykinin vascular permeability, comparison ([1]; MV 8612 versus MV 8608): more active than MV 8608; potency ratio MV 8612 versus MV 8608, lymphocyte proliferation ([3]; more potent): about 570 fold; decrease of R-type single Ca2+ channel current amplitude (R-type Ca^2+ channel [4]; 10^−7M via the patch pipette, n=3): about 75 % of the control value; extent of blocking of R-type channel amplitude and probability of opening, comparison (R-type Ca^2+ channel [4]; intra-patch pipette, MV8612 versus MV8608): superior to that of MV8608; cellulose sulphate-induced paw oedema (mouse paw oedema; 7.5 and 15, i.p., 30 min prior): dose-dependent inhibition; PAF-acether-induced oedema (mouse paw oedema; 40 to 160 nmol/paw): failed to affect significantly; serotonin-induced oedema (mouse paw oedema; 40 to 160 nmol/paw): failed to affect significantly; bradykinin-induced paw oedema (mouse paw oedema; [7]): inhibited; carrageenan-induced paw oedema (mouse paw oedema; [7]): inhibited; sustained increase of [Ca]i induced by sustained depolarization and hormones (R-type Ca^2+ channel [5]; 10^−9M, PAF 10^−9M, ET-1): significantly decreased |
